Tests used:
[1] = tested on: endogenous Tau in human neuroblastoma SHSY-5Y cells; assay: Tau levels by immunoblotting in SHSY-5Y cells; assay type: cell-based; settings: 5 μM and 10 μM, 24 hours, immunoblot
Procedure: (§1) Endogenous Tau expressing human neuroblastoma SHSY5Y cells and Hela cells stably overexpressing wild-type human tau were maintained in OptiMEM media supplemented with fetal bovine serum and antibiotic solution as described previously. In six-well plates, cells were treated with control or MB-NPs for 24 hours. Cells were harvested and processed for immunoblotting as described previously.
(§2) To test the functionality of newly generated NPs, two different cell culture-based AD models were utilized. Endogenously tau expressing SHSHY neuronal cells and stably tau overexpressing HeLa cells were treated with 5 μM and 10 μM of MB-NPs, coated MB-NPs, control NPs, vehicle, and/or drug MB-solution for 24 hours. Cells were harvested, and samples were analyzed for tau levels by immunoblotting (FIG. 4).

[2] = tested on: human Tau stably over-expressed in HeLa cells; assay: Tau levels by immunoblotting in HeLa cells overexpressing tau; assay type: cell-based; settings: HeLa cells over-expressing tau, 5 μM and 10 μM, 24 hours, immunoblot
Procedure: as §1, §2

[3] = tested on: co-culture of rat brain endothelial 4 (RBE4) and C6 astrocytoma cells; assay: In vitro blood-brain barrier Transwell permeation assay; assay type: in vitro ADME; settings: 10 μM, 0, 3, 6 and 24 hours, UV 600 nm, n=3
Procedure: Transwell Permeable Supports (CORNING) with a 0.4 μm pore size were purchased to investigate the permeability of MB nanoparticles across the blood-brain barrier (BBB) (FIG. 5). Each side was coated with 0.1% rat tail collagen I solution diluted from the purchased 100 mg solution (Collagen I, rat tail, 100 mg, BD BIOSCIENCES), left under the hood to adhere to the support for 1 hour, and washed with […] of 1×PBS after aspiration of the remaining collagen solution. The media used was a 1:1 solution of Ham's F10:MEM media (CELLGRO) supplemented with 10% fetal bovine serum (FBS) (INVITROGEN), 1% penicillin and streptomycin (CELLGRO), 0.4 mL of 1 ng/mL human recombinant diluted basic fibroblast growth factor (bFGF) (BD Biosciences), 5 mL of HEPES buffer (FISHER), and 2 mL of a 200 mM stock of L-glutamine (MEDIATECH). 1.5 mL of media was added surrounding the support, and 0.5 mL was added inside the support. This was left to incubate in the incubator (37° C. and 5% CO2) for 24 hours.
After 24 hours, the media was aspirated from the plates. […]
Subsequently, the media was aspirated and replaced with equal amounts of 1% FBS experimental media. […] The samples were quantified by UV spectrometry in the SYNERGY H4 plate reader (BIOTEK INSTRUMENTS Inc.) at a wavelength of 600 nm. Data was quantified in triplicates and averaged (n=3).

CN(C)c1ccc2nc3ccc(=[N+](C)C)cc-3sc2c1 [MB solution, Methylene blue]
Reduction in tau level (in words) [1]: reduce tau levels slightly higher at 10 μM compared to 5 μM
Reduction in tau level (in words) [2]: reduce tau levels slightly higher at 10 μM compared to 5 μM
Permeation across simulated BBB (in words) [3]: remained relatively constant

Source: patent US10765755B1, “Preparation and characterization of methylene blue nanoparticles for Alzheimer's disease and other tauopathies” (University of South Florida, priority 2013, dated 2020)
